In experiment [1] the test system is MDA-MB-468 cells. The experiment in a line: MTT viability, EJ1 in combination with pathway inhibitors or ROS scavenger. In kind it is cell-based. The conditions noted are these: MDA-MB-468, 20 μmol/l EJ1 plus inhibitor. On the procedure:
(a) MDA-MB-468 cells were treated with either 20 μmol/l CP (A-D) or 20 μmol/l EJ1 (E-H) for 0 minutes (A, E), 15 minutes (B, F), 60 minutes (C, G), or 16 hours (D, H). Arrows indicate membrane blebs and arrowheads indicate intracellular vacuoles. (b) BxPC3 cells were serum starved overnight, then treated with 20 μmol/l EJ1 and 50 ng/ml Texas-Red-labeled EGF, and imaged for 30 minutes with an Olympus IX71 deconvolution microscope. Panels A-F are bright field images, D′-F′ are red channel images (Texas-Red-labeled EGF). Arrowheads indicate locations of EGF accumulation on membrane protrusions. (c) Diagram depicts Ca^2+/CaM-regulated signaling pathway, and inhibitors acting at different targets are indicated. (d) MDA-MB-468 cells were pretreated with 50 μmol/l W-13 (D-F), 10 μmol/l ML-7 (G-I), or 10 μmol/l Y-27632 (J-L) in complete medium at 37° C. for 30 minutes and then treated with vehicle, 20 μmol/l CP, or 20 μmol/l EJ1 in combination with W-13, ML-7, or Y-27632 in complete medium at 37° C. for 15 minutes. Images represent the bright field images. Arrows indicate membrane blebbing. (e) MDA-MB-468 cells were untreated (UNTX) or treated with water (Vehicle), 20 μmol/l EJ1, 10 μmol/l Y-27632, or 10 μmol/l ML-7 alone or EJ1 in combination with Y-27632 or ML-7, and the viability was assessed by the MTT assay. **P<0.01 (Student's t-test). Error bars, mean±SD. (f) MDA-MB-468 cells were either in serum-free medium (SF) or stimulated with 100 ng/ml EGF (EGF) and then incubated with water (Vehicle), 20 μmol/l CP, 20 μmol/l EJ1, 2 μmol/l ionomycin, 50 μmol/l W-13, 100 μmol/l KN-93, or EJ1 in combination with ionomycin for 15 minutes. Lysates were immunoblotted with antibodies as indicated. (g) Stable, neomycin-selected NIH3T3 cell lines were created, expressing either Rac1 wild-type (Rac1-WT) or Rac1 constitutively active mutant (Rac1-Q61L). Cells were treated with water (Vehicle), 20 μmol/l CP, or 20 μmol/l EJ1, and the viability was assessed by MTT. ***P<0.001 (Student's t-test). Error bars, mean±SD.
(a) MDA-MB-468 cells were incubated in serum-free media with 200 nmol/l MitoTracker Red CMXRos and 5 μg/ml Hoechst 33342 nuclear stain, followed by either 20 μmol/l CP (A-B′) or 20 μmol/l EJ1 (C-D′), and imaged at 0 minutes (A, A′; and C, C′) or at 5 minutes (B, B′; and D, D′). (b) MDA-MB-468 cells were incubated with 1 μmol/l JC-1, followed by 20 μmol/l CP, 20 μmol/l EJ1, or 50 μmol/l CCCP. Results were calculated as the ratio of the 514/590 nm to 514/529 nm fluorescences and the ratio for CP-treated sample was set as 1. *P<0.05, Student's t-test. Error bars, mean±SD. […] Cells were then sorted by flow cytometer and analyzed by Cellquest Pro 4.0 software. The results are expressed as the percentage of DCFH fluorescence-positive cells. *P<0.05, Student's t-test. […]

The subject of experiment [2] is MDA-MB-468 cells. The experiment in a line: Membrane blebbing / cell morphology, bright field imaging. The format is cell-based. The conditions noted are these: for inhibition of EJ1-induced membrane blebbing: 50 μmol/l W-13, 10 μmol/l ML-7, 10 μmol/l Y-27632 with 20 μmol/l EJ1. On the procedure:
(a) MDA-MB-468 cells were treated with either 20 μmol/l CP (A-D) or 20 μmol/l EJ1 (E-H) for 0 minutes (A, E), 15 minutes (B, F), 60 minutes (C, G), or 16 hours (D, H). […] (b) BxPC3 cells were serum starved overnight, then treated with 20 μmol/l EJ1 and 50 ng/ml Texas-Red-labeled EGF, and imaged for 30 minutes with an Olympus IX71 deconvolution microscope. Panels A-F are bright field images, D′-F′ are red channel images (Texas-Red-labeled EGF). […] (c) Diagram depicts Ca^2+/CaM-regulated signaling pathway, and inhibitors acting at different targets are indicated. (d) MDA-MB-468 cells were pretreated with 50 μmol/l W-13 (D-F), 10 μmol/l ML-7 (G-I), or 10 μmol/l Y-27632 (J-L) in complete medium at 37° C. for 30 minutes and then treated with vehicle, 20 μmol/l CP, or 20 μmol/l EJ1 in combination with W-13, ML-7, or Y-27632 in complete medium at 37° C. for 15 minutes. Images represent the bright field images. […] Error bars, mean±SD. (f) MDA-MB-468 cells were either in serum-free medium (SF) or stimulated with 100 ng/ml EGF (EGF) and then incubated with water (Vehicle), 20 μmol/l CP, 20 μmol/l EJ1, 2 μmol/l ionomycin, 50 μmol/l W-13, 100 μmol/l KN-93, or EJ1 in combination with ionomycin for 15 minutes. Lysates were immunoblotted with antibodies as indicated. […] Error bars, mean±SD. (From Hart et al., 2013, Molecular Therapy 21(11):1996-2007, the disclosure of which is incorporated herein in its entirety.)
Ca^2+/CaM signaling regulates many different cellular events, such as membrane dynamics, cell survival, mitochondrial function, and motility. We began by evaluating whether EJ1 was affecting membrane dynamics by treating MDA-MB-468 cells with either CP (FIG. 8) or EJ1 (FIG. 8) and examining cell morphology. […] Ca^2+/CaM signaling regulates many different downstream pathways, such as CaMKII and MLCK. CaMKII regulates cell proliferation, whereas MLCK phosphorylates myosin light chain (MLC) and regulates actinomyosin reorganization during membrane blebbing (as depicted in FIG. 8). To investigate whether EJ1-induced membrane blebbing was through the MLCK pathway, MDA-MB-468 cells were treated with vehicle, CP, or EJ1 alone (A-C) or in combination with the CaM inhibitor W-13 or the MLC phosphorylation inhibitors ML-7 and Y-27632 (D-L).

Experiment [3] deals with MDA-MB-468 cells. The conditions noted are these: for effect on cell viability (MTT): MDA-MB-468, 3 days of treatment (FIG. 6); for inhibitor effect on cell survival after three days of treatment: MDA-MB-468, 20 uM peptide (FIG. 1). On the procedure: Inhibitor peptides were evaluated on their ability to inhibit growth of triple-negative breast cancer cells MDA-MB-468 (20 uM peptide treatment). […] SEQ ID NO: 13 is […] SEQ ID NO: 14 is […] SEQ ID NO: 15 is […] SEQ ID NO: 16 is […] SEQ ID NO: 17 is […] SEQ ID NO: 18 is […] SEQ ID NO: 19 is […] SEQ ID NO: 20 is […] SEQ ID NO: 21 is […] SEQ ID NO: 22 is […] SEQ ID NO: 23 is […] SEQ ID NO: 24 is […] SEQ ID NO: 25 is […]
Peptide designations are indicated in the right column. Changes from EJ1 in EJ2-11 are denoted in the second column from the right. (d-j) Cell lines were treated daily with 20 μmol/l EJ1, 20 μmol/l CP, or vehicle (water) for 3 days unless otherwise noted, and cell viability was determined by the MTT assay. Growth rates for vehicle-treated cells were set to 100%, and CP and EJ1 rates were adjusted accordingly. *P<0.05, **P<0.01, ***P<0.001 (Student's t-test). Error bars, mean±SD. (From Hart et al., 2013, Molecular Therapy 21(11):1996-2007, the disclosure of which is incorporated herein in its entirety.)
To do this, we created cell-penetrating peptides to act as dominant-negative “decoys,” thereby inhibiting endogenous jxm interactions. Peptides specific for jxm subdomains were synthesized downstream of the protein transduction domain-4 (PTD4; FIG. 6). Next, the effect of peptide treatment on cell viability was analyzed on the breast cancer cell line MDA-MB-468 by MTT (3-[4,5-dimethylthiazol-2-yl]-2,5-diphenyl tetra-zolium bromide) analysis after 3 days of treatment.
Protein lysate preparation, immunoprecipitation, and western blotting were performed as described previously. For cross-linking, cells were first incubated according to manufacturer instructions with 3 μmol/l DMS, a membrane-permeable, noncleavable, cross-linking agent (Thermo Scientific, Waltham, Mass.). Cells were analyzed both by the MTT assay following manufacturer's instructions (Sigma) and using a U-Quant Spectrophotometer (Bio-TEK Instruments, Winooski, Vt.).

Experiment [4] deals with patient-derived glioma lines (BT145, BT147, GB16, GB7, GB42). Nature of the experiment: Viability of patient-derived GBM cells. In kind it is cell-based. The text has this:
FIG. 13A and FIG. 13B show treatment of patient-derived GBM cells with various EGFR inhibitor peptides.
EGFR is amplified or mutated in more than 40% of glioblastoma multiforme (GBM) tumors. Referring to FIG. 13-14, inhibitor peptides of the present invention were used to treat GBM cells and tumors.

No end group written: not given here.

For the molecule `Cn1cnc(=N)c2[nH]cnc21` [3-MA], in the experiment with MDA-MB-468 cells [1], the “effect of co-treatment on EJ1-induced loss of cell viability (MTT)” value was “not able to rescue”.

Consider `COc1cc2ncnc(Nc3cccc(Cl)c3)c2cc1OC` [AG1478], for which the membrane blebbing entry in the experiment with MDA-MB-468 cells [2] (EJ1 20 μmol/l, 15 minutes) is “No membrane blebbing was observed”.

For the molecule YARAAARQARAFMRQRHIVRQRTLRQLLQERE [EJ11], in the experiment with MDA-MB-468 cells [3], the “effect on cell viability (MTT)” value is reported as “only marginally blocked the antiproliferative effects of EJ1”.

Take `C[C@@H](N)[C@H]1CC[C@H](C(=O)Nc2ccncc2)CC1` [Y-27632]: the “effect of co-treatment on EJ1-induced loss of cell viability (MTT)” value with MDA-MB-468 cells [1] is on record as “significantly reduce the effects of EJ1”. Moreover, in the experiment with MDA-MB-468 cells [2], the “inhibition of EJ1-induced membrane blebbing” value (“inhibition” below) is on record as “completely inhibited”.

On to “YARAAARQARARDRHIVRDRTLRD (Artificial peptide sequence related to EGFR juxtamembrane sequence) [nlsCPv4]”, for which, in the experiment with MDA-MB-468 cells [3], the “inhibitor effect on cell survival after three days of treatment” value is on record as “almost no inhibitor effect”.

As to `O=S(=O)(c1cccc2c(I)cccc12)N1CCCNCC1` [ML-7], the “effect of co-treatment on EJ1-induced loss of cell viability (MTT)” value with MDA-MB-468 cells [1] is reported as “significantly reduce the effects of EJ1”. In addition, the “inhibition” value in the experiment with MDA-MB-468 cells [2] is “completely inhibited”.

`NCCCCNS(=O)(=O)c1ccc2c(Cl)cccc2c1` [W-13]: the “inhibition” value in the experiment with MDA-MB-468 cells [2] is given as “completely inhibited”.

As to “YARAAARQARAFMRDRHIVRDRTLRDLLQERE (Artificial peptide sequence related to EGFR juxtamembrane sequence) [EJ10]”, in the experiment with MDA-MB-468 cells [3], the “inhibitor effect on cell survival after three days of treatment” value was “almost no inhibitor effect” and the “effect on cell viability (MTT)” value is recorded as “completely ablated the effects on viability”.

Turning to “YARAAARQARARRRHIVRKRTLRR (Artificial peptide sequence related to EGFR juxtamembrane sequence) [EJ4]”, the “effect on cell viability (MTT)” value with MDA-MB-468 cells [3] is listed as “No antiproliferative effect”.

Turning to “YARAAARQARARTLRRLLQERE (Artificial peptide sequence related to EGFR juxtamembrane sequence) [EJ5]”, in the experiment with MDA-MB-468 cells [3], the “effect on cell viability (MTT)” value was “partial reduction”.

“YARAAARQARAFMRRRHIVRKRTL (Artificial peptide sequence related to EGFR juxtamembrane sequence) [EJ2]”: the “effect on cell viability (MTT)” value with MDA-MB-468 cells [3] is listed as “partial reduction”.

With “YARAAARQARAIVRKRTLRRLLQERE (Artificial peptide sequence related to EGFR juxtamembrane sequence) [EJ3]”, in the experiment with MDA-MB-468 cells [3], the “effect on cell viability (MTT)” value is “partial reduction”.

Take “YARAAARQARALLQERELVEPLT (Artificial peptide sequence related to EGFR juxtamembrane sequence) [EJ6]”: the “effect on cell viability (MTT)” value in the experiment with MDA-MB-468 cells [3] is given as “No antiproliferative effect”.

For “control peptide: control peptide compared to stapled EJ1 on patient-derived glioma lines (YARAAARQARAFMRDRHIVRDRTLRDLLQERE; Artificial peptide sequence related to EGFR juxtamembrane sequence) [reference compound]”, the “cell viability of patient-derived glioma lines” value in experiment [4] (BT145 and BT147 (FIG. 13A)) was “no effect on cell viability”; in experiment [4] (GB16, GB7, GB42 and BT147, 24 hr treatment (FIG. 13B)), “no effect on cell viability”.

Source of the values: patent US10066004B2 (ARIZONA CANCER THERAPEUTICS, LLC, priority 2010, dated 2018).
